“And” between values parts separate entries of the source, which are not always exact repeats. Equal entries are not always repeated.
Test system: NCI-H23 complex spheroids with HUVEC/MSC, viability
Assay: Anticancer human tumor NCI-H23 cell line growth inhibition [RAS];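 note: spheroids exposed to compound for 7 days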;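 for viability, T/C: 100% = DMSO vehicle control viability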
Details: for viability, T/C: stronger effect = lower value
Description: RAS pathway inhibitors in Combinations in Complex Spheroids
A high-throughput screen of multi-cell type tumor spheroids was designed to identify active combinations of RAS pathway inhibitors and targeted small molecules. Complex spheroids include a stromal component modeled by human endothelial cells (HUVEC) and fibroblasts modeled by human mesenchymal stem cells (MSCs). The concentration ranges selected for each drug and investigational agent were based upon clinically achievable concentrations if the clinical Cmax of the agent was known.
Compounds. The drugs and investigational agents: abemaciclib (NSC768073), cobimetinib (NSC768068), divarasib (GDC6063, NSC841802), docetaxel (NSC628503), GDC-1971 (RLY-1971, NSC841576), gemcitabine (NSC613327), inavolisib (NSC800729), ipatasertib (NSC767898), KB-0742 (NSC834161), MRTX-1133 (NSC836407), osimertinib (NSC779217), RMC-4630 (NSC839698), RMC-6236 (NSC851965), RMC-6291 (NSC852671), Ro-3306 (NSC812927), sapanisertib (NSC764658), SN-38 (NSC673596), staurosporine (NSC755774), SY5609 (NSC837396), and tovorafenib (DAY101, NSC766906), were obtained from the National Cancer Institute (NCI) Developmental Therapeutics Program Chemical Repository. The FDA-approved anticancer drug set is available from the NCI Developmental Therapeutics Program. […] The stock solutions were prepared in dimethyl sulfoxide (DMSO, Sigma-Aldrich, St. Louis, MO, cat. D2650) at 800-fold the tested concentration and stored at -70 degrees C prior to their use. All drugs and investigational agents were tested over a range starting from a high concentration at or near the clinical Cmax and decreasing in half-log increments. If the clinical Cmax for an agent had not been determined, the highest concentration tested was 10 microM.
Cell Culture. All cells were maintained in an incubator at 37 degrees C and 5% CO2 with 95% humidity. The PDC lines were cultured according to standard operating procedures established by the NCI PDMR. All PDCs were thawed and cultured in Matrigel-coated flasks prepared with a working solution of 1X Ham's F-12 nutrient mix, without supplementation (Invitrogen, Waltham, MA, cat. 11765054), 100 U/mL penicillin-streptomycin (Invitrogen, cat. 15140122), and 2.5% Matrigel (Corning Inc., Corning, NY, cat. 354248) for the first three passages. The 362531-283-R-J2-PDC and 782815-120-R-J1-PDC lines were cultured in 6C/Colon 1B media, which includes advanced DMEM/F-12 (Thermo Fisher Scientific, cat. 12634028), 10 mM HEPES (Thermo Fisher Scientific, cat. 15630080), 1X GlutaMAX supplement (Thermo Fisher Scientific, cat. 35050061), 0.1 mg/mL primocin (InvivoGen, San Diego, CA, cat. ant-pm-2), 10% defined fetal bovine serum, heat inactivated (HyClone Laboratories Inc., Logan, UT, cat. SH30070.03HI), 50% L-WRN conditioned media (ATCC, cat. CRL-3276), 1.25 mM N-Acetyl-L-cysteine (Sigma-Aldrich, cat. A9165), 10 mM nicotinamide (Sigma-Aldrich, cat. N0636), 1X B-27 supplement (Thermo Fisher Scientific, cat. 17504044), 1X N-2 supplement (Thermo Fisher Scientific, cat. 17502048), 50 ng/mL human EGF (Thermo Fisher Scientific, cat. PHG0311), and 10 microM Y-27632 dihydrochloride (Tocris Bioscience, cat. 1254). The K12877-001-R-J1-PDC line was cultured in 6I media, which includes all 6C/Colon 1B media plus 10 ng/mL human FGF-10 (PeproTech, cat. 100-26), 1 ng/mL human FGF-2 (PeproTech, cat. 100-18B), 1 µM prostaglandin E2 (Tocris Bioscience, cat. 2296), […] hydrocortisone (Sigma-Aldrich, cat. H4001), and […] bovine insulin (Sigma-Aldrich, cat. I6634). The K86415-001-R-J1-PDC line was cultured in 6D media, which includes all 6C/Colon 1B media components minus the L-WRN conditioned media. The 485176-168-R4-J1-PDC was cultured in PANC media, which includes all 6C/Colon 1B media plus 100 ng/mL human FGF-10 (PeproTech, cat. 100-26), 500 nM SB-431542 (Selleckchem, cat. S1067), and 10 nM gastrin (Tocris Bioscience, cat. 3006). […]

CC(Nc1ccc2c(c1)OCCn1cc(N3C(=O)OCC3C(F)F)nc1-2)C(N)=O (stereo unspecified) + C=CC(=O)N1CCN(c2nc(OCC3CCCN3C)nc3c(F)c(-c4nc(N)cc(C)c4C(F)(F)F)c(Cl)cc23)C(C)C1
IC50 (curve of first compound, second compound 0.00316 µM): 142 nM
IC50 (curve of first compound, second compound 0.01 µM): < 31.6 nM
IC50 (curve of first compound, second compound 0.0316 µM): < 31.6 nM
IC50 (curve of first compound, second compound 0.1 µM): < 31.6 nM
IC50 (curve of first compound, second compound 0.316 µM): < 31.6 nM
IC50 (curve of first compound, second compound 1 µM): < 31.6 nM
viability, T/C (second compound 0.00316 µM, first compound 0.0316 µM): 51.2%
viability, T/C (second compound 0.00316 µM, first compound 0.1 µM): 60.2%
viability, T/C (second compound 0.00316 µM, first compound 0.316 µM): 34.6%
viability, T/C (second compound 0.00316 µM, first compound 1 µM): 39.1%
viability, T/C (second compound 0.00316 µM, first compound 3.16 µM): 35.8%
viability, T/C (second compound 0.00316 µM, first compound 10 µM): 38.3%
viability, T/C (second compound 0.01 µM, first compound 0.0316 µM): 43.8%
viability, T/C (second compound 0.01 µM, first compound 0.1 µM): 40.7%
viability, T/C (second compound 0.01 µM, first compound 0.316 µM): 35.9%
viability, T/C (second compound 0.01 µM, first compound 1 µM): 28.7%
viability, T/C (second compound 0.01 µM, first compound 3.16 µM): 31%
viability, T/C (second compound 0.01 µM, first compound 10 µM): 26.5%
viability, T/C (second compound 0.0316 µM, first compound 0.0316 µM): 36.4%
viability, T/C (second compound 0.0316 µM, first compound 0.1 µM): 35.5%
viability, T/C (second compound 0.0316 µM, first compound 0.316 µM): 27.2%
viability, T/C (second compound 0.0316 µM, first compound 1 µM): 27.3%
viability, T/C (second compound 0.0316 µM, first compound 3.16 µM): 24.8%
viability, T/C (second compound 0.0316 µM, first compound 10 µM): 23.3%
viability, T/C (second compound 0.1 µM, first compound 0.0316 µM): 31.4%
viability, T/C (second compound 0.1 µM, first compound 0.1 µM): 29.3%
viability, T/C (second compound 0.1 µM, first compound 0.316 µM): 26.4%
viability, T/C (second compound 0.1 µM, first compound 1 µM): 27.6%
viability, T/C (second compound 0.1 µM, first compound 3.16 µM): 22.9%
viability, T/C (second compound 0.1 µM, first compound 10 µM): 22.4%
viability, T/C (second compound 0.316 µM, first compound 0.0316 µM): 28.7%
viability, T/C (second compound 0.316 µM, first compound 0.1 µM): 31.2%
viability, T/C (second compound 0.316 µM, first compound 0.316 µM): 30%
viability, T/C (second compound 0.316 µM, first compound 1 µM): 23.7%
viability, T/C (second compound 0.316 µM, first compound 3.16 µM): 25.9%
viability, T/C (second compound 0.316 µM, first compound 10 µM): 24.3%
viability, T/C (second compound 1 µM, first compound 0.0316 µM): 33%
viability, T/C (second compound 1 µM, first compound 0.1 µM): 33.5%
viability, T/C (second compound 1 µM, first compound 0.316 µM): 28.8%
viability, T/C (second compound 1 µM, first compound 1 µM): 22.5%
viability, T/C (second compound 1 µM, first compound 3.16 µM): 27.8%
viability, T/C (second compound 1 µM, first compound 10 µM): 25%

C=CC(=O)N1CCN(c2nc(OCC3CCCN3C)nc3c(F)c(-c4nc(N)cc(C)c4C(F)(F)F)c(Cl)cc23)C(C)C1 (stereo unspecified)
viability, T/C (compound 0.00316 µM): 61.5% [middle of 12 runs]
viability, T/C (compound 0.01 µM): 48.4% [middle of 12 runs]
viability, T/C (compound 0.0316 µM): 39.9% [middle of 12 runs]
viability, T/C (compound 0.1 µM): 38.5% [middle of 12 runs]
viability, T/C (compound 0.316 µM): 38.3% [middle of 12 runs]
viability, T/C (compound 1 µM): 37.2% [middle of 12 runs]
IC50 (compound alone, run of 07/15/2024): 9 nM [middle of 8 runs]
IC50 (curve of compound): 8.5 nM and < 3.16 nM and 7.59 nM

NC1c2ccccc2OC12CCN(c1cnc3c(N4CCCc5ncccc54)n[nH]c3n1)CC2 (stereo unspecified)
viability, T/C (compound 0.0316 µM): 72.5% [middle of 4 runs]
viability, T/C (compound 0.1 µM): 66.6% [middle of 4 runs]
viability, T/C (compound 0.316 µM): 44.9% [middle of 4 runs]
viability, T/C (compound 1 µM): 42.2% [middle of 4 runs]
viability, T/C (compound 3.16 µM): 41.3% [middle of 4 runs]
viability, T/C (compound 10 µM): 44.1% [middle of 4 runs]

Source: PubChem BioAssay AID2060885 (Molecular Pharmacology Branch, DTP, NCI, 2025)
